By IC50 is commonly meant the point on the concentration scale where inhibition reaches its midpoint.

The test can be described thus: Cytotoxicity against human WHCO1 cells after 24 hrs by MTT assay. The format is functional, cell-based. As to conditions: WHCO1, 24 h. (In general: Tetrazolium assays rely on reduction of a dye to a coloured formazan, in cell work by metabolically active cells.)
With `CC(=O)O[C@H]1CC(C)(C)[C@@H]2[C@H](OC(C)=O)[C@@H](OC(C)=O)C(C)=C(CC/C(C)=C/CO)[C@@]2(C)C1`, the IC50 is 24 µM.

`CC(=O)OC/C=C(\C)CCC1=C(C)[C@H](OC(C)=O)[C@@H](OC(C)=O)[C@H]2C(C)(C)CCC[C@]12C` gave an IC50 of 84 µM.

In turn, `CC(=O)O[C@@H]1[C@@H](OC(C)=O)C(C)=C(CC/C(C)=C/CO)[C@@]2(C)CCCC(C)(C)[C@H]12` registered an IC50 of 25 µM.

For the compound `CC(C)CCC[C@@H](C)[C@H]1CC[C@@H](C2=CC(=O)C3=C[C@H](O)CC[C@]3(C)C2=O)[C@]1(C)CCO`, 3 µM corresponded to half-maximal inhibition (IC50).

These data come from ChEMBL document CHEMBL1144835, “Bioactive metabolites from the South African marine mollusk Trimusculus costatus” (J Nat Prod, 2008).
